# From ChEMBL document CHEMBL2073873, “Identification of a novel human organic anion transporting polypeptide as a high affinity thyroxine transporter” (Mol Endocrinol, 2002)
# Residues, ends and D or L forms follow the SMILES beside them.
# T1: Solute carrier organic anion transporter family member 1C1 (Homo sapiens, UniProt Q9NYB5)
# T1 sequence (Q9NYB5 whole entry): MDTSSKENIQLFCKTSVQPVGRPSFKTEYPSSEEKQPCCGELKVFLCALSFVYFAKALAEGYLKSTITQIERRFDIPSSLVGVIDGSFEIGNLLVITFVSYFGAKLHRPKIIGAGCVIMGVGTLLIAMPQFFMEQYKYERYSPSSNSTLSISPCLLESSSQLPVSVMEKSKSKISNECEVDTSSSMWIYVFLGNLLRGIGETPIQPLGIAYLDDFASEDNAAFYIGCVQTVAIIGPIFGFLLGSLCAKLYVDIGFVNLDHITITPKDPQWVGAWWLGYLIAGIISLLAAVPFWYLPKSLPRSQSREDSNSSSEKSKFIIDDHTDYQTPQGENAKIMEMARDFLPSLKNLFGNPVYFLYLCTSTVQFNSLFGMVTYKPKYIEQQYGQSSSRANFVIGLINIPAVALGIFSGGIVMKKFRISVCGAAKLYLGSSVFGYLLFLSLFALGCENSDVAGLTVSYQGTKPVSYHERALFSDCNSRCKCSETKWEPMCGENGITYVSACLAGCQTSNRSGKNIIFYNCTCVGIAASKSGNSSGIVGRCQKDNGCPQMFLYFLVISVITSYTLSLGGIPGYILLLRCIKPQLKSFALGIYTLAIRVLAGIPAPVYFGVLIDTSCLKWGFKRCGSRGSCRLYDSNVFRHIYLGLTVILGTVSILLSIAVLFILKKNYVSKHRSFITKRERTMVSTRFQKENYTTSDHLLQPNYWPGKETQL
# B1: Solute carrier organic anion transporter family member 1C1 (Homo sapiens) (protein)
# chain: MDTSSKENIQLFCKTSVQPVGRPSFKTEYPSSEEKQPCCGELKVFLCALSFVYFAKALAEGYLKSTITQIERRFDIPSSLVGVIDGSFEIGNLLVITFVSYFGAKLHRPKIIGAGCVIMGVGTLLIAMPQFFMEQYKYERYSPSSNSTLSISPCLLESSSQLPVSVMEKSKSKISNECEVDTSSSMWIYVFLGNLLRGIGETPIQPLGIAYLDDFASEDNAAFYIGCVQTVAIIGPIFGFLLGSLCAKLYVDIGFVNLDHITITPKDPQWVGAWWLGYLIAGIISLLAAVPFWYLPKSLPRSQSREDSNSSSEKSKFIIDDHTDYQTPQGENAKIMEMARDFLPSLKNLFGNPVYFLYLCTSTVQFNSLFGMVTYKPKYIEQQYGQSSSRANFVIGLINIPAVALGIFSGGIVMKKFRISVCGAAKLYLGSSVFGYLLFLSLFALGCENSDVAGLTVSYQGTKPVSYHERALFSDCNSRCKCSETKWEPMCGENGITYVSACLAGCQTSNRSGKNIIFYNCTCVGIAASKSGNSSGIVGRCQKDNGCPQMFLYFLVISVITSYTLSLGGIPGYILLLRCIKPQLKSFALGIYTLAIRVLAGIPAPVYFGVLIDTSCLKWGFKRCGSRGSCRLYDSNVFRHIYLGLTVILGTVSILLSIAVLFILKKNYVSKHRSFITKRERTMVSTRFQKENYTTSDHLLQPNYWPGKETQL
# Molecular target: T1, Solute carrier organic anion transporter family member 1C1
# Test: (§1) TP_TRANSPORTER: uptake in OATP-F-expressing CHO cells
# Format: functional, cell-based
# Details: hamster
row,Molecule,Activity
1,C=C[C@H]1C[N+]2(C)CC[C@H]1C[C@H]2[C@H](O)c1ccnc2ccc(OC)cc12,is not a substrate [-]
2,CC1(C)SSC(C)(C)[C@@H](NC(=O)[C@@H](N)Cc2ccc(O)cc2)C(=O)NCC(=O)N[C@@H](Cc2ccccc2)C(=O)N[C@H]1C(=O)O,is not a substrate [-]
3,"CC(C)C[C@@H]1NC(=O)[C@@H](C(C)C)NC(=O)[C@@H]2CCCN2C(=O)[C@@H](CC(=O)O)NC(=O)[C@@H](Cc2c[nH]c3ccccc23)NC1=O [BQ-123] (HELM PEPTIDE1{L.[dW].[dD].P.[dV]}$PEPTIDE1,PEPTIDE1,1:R1-5:R2$$$V2.0)",is not a substrate [-]
4,CC(C)[C@H](NC(=O)[C@H](CCC(=O)O)NC(=O)[C@H](Cc1ccccc1)NC(=O)[C@@H](C)NC(=O)[C@@H](N)Cc1ccc(O)cc1)C(=O)N[C@H](C(=O)NCC(N)=O)C(C)C [DELTORPHIN II],is not a substrate [-]
5,CCCCC[C@H](O)/C=C/[C@H]1[C@H](O)CC(=O)[C@@H]1C/C=C\CCCC(=O)O [DINOPROSTONE],is not a substrate [-]
6,C[C@]12CC[C@@H]3c4ccc(O)cc4CC[C@H]3[C@@H]1CC[C@@H]2O[C@@H]1O[C@H](C(=O)O)[C@@H](O)[C@H](O)[C@H]1O [ESTRADIOL 17B GLUCURONIDE],substrate [+]
7,C[C@]12CC[C@@H]3c4ccc(OS(=O)(=O)O)cc4CC[C@H]3[C@@H]1CCC2=O [ESTRONE SULFURIC ACID],substrate [+]
8,C[C@H](CCC(=O)NCC(=O)O)[C@H]1CC[C@H]2[C@@H]3[C@H](O)C[C@@H]4C[C@H](O)CC[C@]4(C)[C@H]3C[C@H](O)[C@]12C [GLYCOCHOLIC ACID],is not a substrate [-]
9,CCCCC/C=C\C\C=C/C=C/C=C/[C@@H](SC[C@@H](NC(=O)CC[C@H](N)C(=O)O)C(=O)NCC(=O)O)[C@@H](O)CCCC(=O)O [LEUKOTRIEN C4],is not a substrate [-]
10,N[C@@H](Cc1cc(I)c(Oc2ccc(O)c(I)c2)c(I)c1)C(=O)O [LIOTHYRONINE],substrate [+]
11,CN(Cc1cnc2nc(N)nc(N)c2n1)c1ccc(C(=O)N[C@@H](CCC(=O)O)C(=O)O)cc1 [METHOTREXATE],is not a substrate [-]
12,C[C@@H]1O[C@@H](O[C@H]2C[C@@H](O)[C@]3(CO)[C@H]4[C@H](O)C[C@]5(C)[C@@H](C6=CC(=O)OC6)CC[C@]5(O)[C@@H]4CC[C@]3(O)C2)[C@H](O)[C@H](O)[C@H]1O [OUABAIN],is not a substrate [-]
13,C[C@]12CC[C@H](OS(=O)(=O)O)CC1=CC[C@@H]1[C@@H]2CC[C@]2(C)C(=O)CC[C@@H]12 [PRASTERONE SULFURIC ACID],is not a substrate [-]
14,O=C1OC(c2ccc(O)c(S(=O)(=O)[O-])c2)(c2ccc(O)c(S(=O)(=O)[O-])c2)c2c(Br)c(Br)c(Br)c(Br)c21.[Na+].[Na+] [SULFOBROMOPHTHALEIN SODIUM],substrate [+]

# Substrate: N[C@@H](Cc1cc(I)c(Oc2cc(I)c(O)c(I)c2)c(I)c1)C(=O)O
# Test: as §1
# Format: functional, cell-based
# Details: not given
row,Molecule,Km [µM]
1,B1,0.0904

# Substrate: N[C@@H](Cc1ccc(Oc2cc(I)c(O)c(I)c2)c(I)c1)C(=O)O
# Test: as §1
# Format: functional, cell-based
# Details: not given
row,Molecule,Km [µM]
1,B1,0.128
